Measured values reported in PMC6212553, “Baicalein Enhances the Oral Bioavailability and Hepatoprotective Effects of Silybin Through the Inhibition of Efflux Transporters BCRP and MRP2” (Frontiers in Pharmacology, 2018).
Where two headings read alike, the source gives them in different places.

How the values were obtained:
[1] = Stability of SBA and SBB in plasma QC samples; format: in vitro ADME, rat; conditions: three freeze–thaws, long-term, short-term, post-preparative
Description: Next, we wanted to investigate the effect of baicalein on the PKs of silybin in vivo. A validated analytical method for the determination of silybin and its total conjugates in rat plasma by LC-MS was developed based on a previous report with minor modifications ([Yuan et al., 2017]). […] The results of precision and accuracy for intra- and inter-day evaluation are presented in Supplementary Table S2. The lower limit of quantification (LLOQ) was 5 ng/ml with relative standard deviation (RSD) ≤6.4%. The RSD values of quality control (QC) samples examined for precision were within 6.4%, while the accuracy ranged from 91.7 to 109.5%. It can be seen from Supplementary Table S2 that the extraction recoveries of silybin A and B were above 84.4% in plasma. Stability of SBA and SBB in plasma was also tested using QC samples at four different concentrations in the stability tests of three freeze–thaws, long-term, short-term, and post-preparative.
S. Table 1.Calibration curves for determination of S Ba, and S Bb in plasm a samples.
Cpd. Standard curv es R2 R ange
S. Table 2.P recision,accurac y and recover y for determination of S Ba, and S Bb in […]
S. Table 3. Stabilit y t esting results for determination of SBa, and S Bb in plasma […]
Initial a Freeze- thaw b Short-t e r m b Long- t e r m b Post-Prep. b […]
a. Contents of silybin and tangeretin in the freshly prepared QC samples. b. […]

[2] = Pharmacokinetic study in rats after oral administration; format: in vivo, SD rats; conditions: silybin 50 mg/kg oral; for CL/F / MRT last / Tmax / half-life: male, SD, rat, plasma, po, 50 mg/kg; for CL/F: read-out: CLz/F, free silybin (converted); for MRT last: read-out: MRT(0-t), free silybin; for Tmax: read-out: Tmax, free silybin; for half-life: read-out: t1/2z, free silybin (converted)
Description: A previously established liquid chromatography-mass spectrometry (LC-MS) method with slight modifications was used to determine the concentrations of all glucuronide and sulfate conjugates of silybin and free silybin in bio-samples (plasma, cell and media) ([Wen et al., 2008]). In brief, a 10 μl aliquot of each sample was enzymatically hydrolyzed with […] (8000 U/ml) and sulfatase (80 U/ml), and the reaction was terminated by adding 40 μl ice-cold acetonitrile containing glacial acetic acid (1%) and internal standard NG (25 ng/ml). After centrifugation at 13,500 rpm for 15 min at 4°C, the supernatant was dried in ice bath by blowing nitrogen. Later, the residues were reconstituted with 60 μl of 30% methanol in water containing 1% ascorbic acid, and an aliquot of 10 μl of final solution after centrifugation was analyzed by LC-MS/MS. In parallel, a 10 μl aliquot of each sample without enzymes was treated with 40 μl ice-cold acetonitrile containing glacial acetic acid (1%) and NG (25 ng/ml) to determine the concentration of free silybin. Therefore, the concentration of total glucuronides and sulfates was estimated based on the difference between the amount of total silybin (after incubation with both glucuronidase and sulfatase) and free silybin (without enzymatic incubation). The method was validated in terms of specificity, recovery, linearity, sensitivity (LLOQ), matrix effect, accuracy, precision, and stability based on the USA Food and Drug Administration (FDA) bioanalytical method validation guidance. The quantitative linear range for silybin A and B was 5 to 12500 ng/ml.
The analysis for the determination of the concentration of silybin and its glucuronides and sulfates was performed on an Agilent HP 1100 LC-MS system (Agilent, CA, United States) with Waters ACQUITY UPLC® BEH C18 Column (1.7 μm, 2.1 × 50 mm, Waters Corp., Ireland) protected by a C18 Security Guard cartridge (4 × 2.0 mm i.d., Phenomenex, Torrance, CA, United States). Silybin A and B were well separated using optimized gradient elution with 0.1% formic acid in water (mobile phase A) and methanol (mobile phase B) at a flow rate of 0.4 ml/min within 10 min at room temperature (22°C). The gradient elution was performed as follows (time: mobile phase B percentage): 0 min: 25%, 6 min: 40%, 6.5 min: 25%.
Mass spectrometry parameters: capillary voltage, -4000 V; drying gas, 9 L/min; drying gas temperature, 325°C; nebulizer pressure, 40 psi; fragment voltage, 35 V; dwell time, 200 ms; scan mode, selective ion monitoring (SIM) with [M-H]^- for silybin (m/z 481), mono-glucuronide (m/z 657), and NG (m/z 271). The LC-MS data were collected by Agilent ChemStation Software.
Male SD rats, weighting 200–250 g, were purchased from the Guangdong Medical Laboratory Animal Center. They were housed as six rats per cage and in a temperature- (21°C) and humidity-controlled (70%) room with a 12 h light/dark cycle with standard diet and water. All animals were allowed to acclimate to the housing conditions for 7 days prior to experimentation. Experimental procedures were approved by the Committee of Guangdong Provincial Hospital of Traditional Chinese Medicine (No # 2017044).
The SD rats were randomly divided into three groups with six rats per group and were given oral administration as follows: (1) silybin at a dosage of 50 mg/kg bodyweight, (2) silybin and baicalein at a dosage of 50 mg/kg each, and (3) baicalein at a dosage of 50 mg/kg body weight. Before the experiment, rats were pre-fasted for 24 h with water ad libitum and were maintained at a temperature of 21°C with 70% relative humidity and a 12 h light/dark cycle. Blood samples were collected via the tail vein (about 0.1 ml) at time intervals of 0, 15, 30, 45, 60, 90, 120, 240, 360, 480, and 720 min after oral administration with a temporary cannula ([Parasuraman et al., 2010]), and the samples were transferred into heparinized micro-centrifuge tubes. […]

[3] = with baicalein 50 mg/kg, listed as SBA
[4] = without baicalein, listed as SBA
[5] = with baicalein 50 mg/kg, listed as SBB

SMILES | stability in plasma [1] | CL/F ([2]; with baicalein 50 mg/kg) | MRT last ([2]; with baicalein 50 mg/kg) | Tmax ([2]; with baicalein 50 mg/kg) | half-life ([2]; with baicalein 50 mg/kg) | CL/F ([2]; without baicalein) | MRT last ([2]; without baicalein) | Tmax ([2]; without baicalein) | half-life ([2]; without baicalein) | AUC(0-∞), free silybin ([2]; with baicalein 50 mg/kg) | AUC(0-∞), free silybin ([2]; without baicalein) | other results
COc1cc([C@H]2Oc3cc([C@H]4Oc5cc(O)cc(O)c5C(=O)[C@@H]4O)ccc3O[C@@H]2CO)ccc1O [silybin A] | without significant loss | 233 mL/min/kg | 1.9 ± 0.2 h | 1.5 h | 1.6 ± 2.3 h | 417 mL/min/kg | 4.1 ± 0.9 h | 1.5 h | 1.5 ± 0.2 h | 3599 ± 410 ng ⋅ h/ml | 2305 ± 1147 ng ⋅ h/ml | AUC(0-t), free silybin ([2]; with baicalein 50 mg/kg): 3534 ± 344 ng ⋅ h/ml; Cmax, free silybin ([2]; with baicalein 50 mg/kg): 1526 ± 126 ng/mL; AUC(0-t), free silybin [2, 3]: 3534 ± 344 ng ⋅ h/ml; Cmax, free silybin [2, 3]: 1526 ± 126 ng/mL; AUC(0-t), free silybin [2, 4]: 1292 ± 342 ng ⋅ h/ml; Cmax, free silybin [2, 4]: 507.7 ± 115 ng/mL
COc1cc([C@@H]2Oc3cc([C@H]4Oc5cc(O)cc(O)c5C(=O)[C@@H]4O)ccc3O[C@H]2CO)ccc1O [silybin B] | without significant loss | 298 mL/min/kg | 2.1 ± 0.3 h | 1.29 ± 0.51 h | 1.34 ± 0.53 h | 450 mL/min/kg | 4.21 ± 0.98 h | 1.5 h | 1.7 ± 0.3 h | 1812 ± 223 ng ⋅ h/ml | 2087 ± 932 ng ⋅ h/ml | AUC(0-t), free silybin [2, 5]: 1808 ± 226 ng ⋅ h/ml; Cmax, free silybin [2, 5]: 915.2 ± 151 ng/mL; AUC(0-t), free silybin ([2]; without baicalein): 1195 ± 302 ng ⋅ h/ml; Cmax, free silybin ([2]; without baicalein): 413 ± 69 ng/mL; Cmax, free silybin ([2]; without baicalein, listed as SBB): 412.7 ± 69.3 ng/mL
